Measured values taken from patent publication US9828393B2, “Silylalkyloxyaryl compounds and methods for treating cancer” (THE REGENTS OF THE UNIVERSITY OF COLORADO, a body corporate, priority 2013, dated 2017).
Like-named read-outs stand apart in the source and are kept apart here.

How the values were obtained:
CCRF-CEM = experiment: NCI-60 cell line screen (SRB), CCRF-CEM; type: cell-based, human
Protocol: (§1) Drug sensitivity data are provided as GI50s (concentrations required to inhibit growth by 50%). The first row of the text file identifies cell lines, separated by tabs. Subsequent rows contain compound number, compound name, and GI50 for each cell line, each separated by a tab. […] For a typical screening experiment, cells are inoculated into 96 well microtiter plates in 100 μL at plating densities ranging from 5,000 to 40,000 cells/well depending on the doubling time of individual cell lines. After cell inoculation, the microtiter plates are incubated at 37° C., 5% CO2, 95% air and 100% relative humidity for 24 h prior to addition of experimental drugs. After 24 h, two plates of each cell line are fixed in situ with TCA, to represent a measurement of the cell population for each cell line at the time of drug addition (Tz). Experimental drugs are solubilized in dimethyl sulfoxide at 400-fold the desired final maximum test concentration and stored frozen prior to use. At the time of drug addition, an aliquot of frozen concentrate is thawed and diluted to twice the desired final maximum test concentration with complete medium containing 50 μg/ml gentamicin. Additional four, 10-fold or one-half log serial dilutions are made to provide a total of five drug concentrations plus control. Aliquots of 100 μl of these different drug dilutions are added to the appropriate microtiter wells already containing 100 μl of medium, resulting in the required final drug concentrations. Following drug addition, the plates are incubated for an additional 48 h at 37° C., 5% CO2, 95% air, and 100% relative humidity. For adherent cells, the assay is terminated by the addition of cold TCA. Cells are fixed in situ by the gentle addition of 50 μl of cold 50% (w/v) TCA (final concentration, 10% TCA) and incubated for 60 minutes at 4° C. The supernatant is discarded, and the plates are washed five times with tap water and air dried. Sulforhodamine B (SRB) solution (100 μl) at 0.4% (w/v) in 1% acetic acid is added to each well, and plates are incubated for 10 minutes at room temperature. After staining, unbound dye is removed by washing five times with 1% acetic acid and the plates are air dried. Bound stain is subsequently solubilized with 10 mM trizma base, and the absorbance is read on an automated plate reader at a wavelength of 515 nm. For suspension cells, the methodology is the same except that the assay is terminated by fixing settled cells at the bottom of the wells by gently adding 50 μl of 80% TCA (final concentration, 16% TCA). Using the seven absorbance measurements [time zero, (Tz), control growth, (C), and test growth in the presence of drug at the five concentration levels (Ti)], the percentage growth is calculated at each of the drug concentrations levels. […]

K-562 = experiment: NCI-60 cell line screen (SRB), K-562; type: cell-based, human
Protocol: as §1

Leukemia cell lines = experiment: NCI-60 cell line screen, Leukemia panel average; type: cell-based, human; details: read-out: GI50 Average
Protocol: as §1

A549/ATCC = experiment: NCI-60 cell line screen (SRB), A549/ATCC; type: cell-based, human
Protocol: as §1

HOP-92 = experiment: NCI-60 cell line screen (SRB), HOP-92; type: cell-based, human
Protocol: as §1

NCI-H23 = experiment: NCI-60 cell line screen (SRB), NCI-H23; type: cell-based, human
Protocol: as §1

SF-268 = experiment: NCI-60 cell line screen (SRB), SF-268; type: cell-based, human
Protocol: as §1

SF-539 = experiment: NCI-60 cell line screen (SRB), SF-539; type: cell-based, human
Protocol: as §1

U-251 = experiment: NCI-60 cell line screen (SRB), U-251; type: cell-based, human
Protocol: as §1

CNS Cancer cell lines = experiment: NCI-60 cell line screen, CNS Cancer panel average; type: cell-based, human; details: read-out: GI50 Average
Protocol: as §1

MDA-MB-435 = experiment: NCI-60 cell line screen (SRB), MDA-MB-435; type: cell-based, human
Protocol: as §1

Melanoma cell lines = experiment: NCI-60 cell line screen, Melanoma panel average; type: cell-based, human; details: read-out: GI50 Average
Protocol: as §1

IGROV1 = experiment: NCI-60 cell line screen (SRB), IGROV1; type: cell-based, human
Protocol: as §1

OVCAR-4 = experiment: NCI-60 cell line screen (SRB), OVCAR-4; type: cell-based, human
Protocol: as §1

SK-OV-3 = experiment: NCI-60 cell line screen (SRB), SK-OV-3; type: cell-based, human
Protocol: as §1

786-0 = experiment: NCI-60 cell line screen (SRB), 786-0; type: cell-based, human
Protocol: as §1

MDA-MB-231/ATCC = experiment: NCI-60 cell line screen (SRB), MDA-MB-231/ATCC; type: cell-based, human
Protocol: as §1

BT-549 = experiment: NCI-60 cell line screen (SRB), BT-549; type: cell-based, human
Protocol: as §1

[1] = molecular target: EZH2 (Enhancer of Zeste Homologue 2), a Histone H3 Lys 27 (H3K27) methyltransferase (Homo sapiens, UniProt Q15910); experiment: OIDD in vitro target-based assay, EZH2 inhibitory activity; type: biochemical; details: OIDD screen; FIG. 1
Chain of EZH2 (Enhancer of Zeste Homologue 2), a Histone H3 Lys 27 (H3K27) methyltransferase (Q15910 whole entry): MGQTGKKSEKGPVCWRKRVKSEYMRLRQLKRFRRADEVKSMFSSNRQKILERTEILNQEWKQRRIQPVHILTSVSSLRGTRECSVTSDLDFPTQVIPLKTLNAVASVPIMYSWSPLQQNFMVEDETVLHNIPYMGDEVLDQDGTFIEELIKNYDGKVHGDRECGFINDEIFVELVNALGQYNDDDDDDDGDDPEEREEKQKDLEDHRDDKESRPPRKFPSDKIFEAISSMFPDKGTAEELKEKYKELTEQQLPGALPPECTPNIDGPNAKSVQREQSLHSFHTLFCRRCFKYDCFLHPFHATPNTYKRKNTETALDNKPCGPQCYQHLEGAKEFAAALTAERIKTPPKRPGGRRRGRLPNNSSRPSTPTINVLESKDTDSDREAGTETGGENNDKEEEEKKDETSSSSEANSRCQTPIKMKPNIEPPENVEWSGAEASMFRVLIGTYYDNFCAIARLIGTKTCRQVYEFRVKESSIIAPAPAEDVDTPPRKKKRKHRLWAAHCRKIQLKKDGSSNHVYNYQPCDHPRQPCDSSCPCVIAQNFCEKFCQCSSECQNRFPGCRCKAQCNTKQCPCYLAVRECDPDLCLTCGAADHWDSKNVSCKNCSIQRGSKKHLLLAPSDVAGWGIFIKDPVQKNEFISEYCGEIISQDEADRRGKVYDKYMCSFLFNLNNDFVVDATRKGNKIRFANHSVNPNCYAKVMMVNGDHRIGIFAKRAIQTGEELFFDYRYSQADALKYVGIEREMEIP
Chain of EZH2 (Enhancer of Zeste Homologue 2), a Histone H3 Lys 27 (H3K27) methyltransferase (O75530 whole entry partner): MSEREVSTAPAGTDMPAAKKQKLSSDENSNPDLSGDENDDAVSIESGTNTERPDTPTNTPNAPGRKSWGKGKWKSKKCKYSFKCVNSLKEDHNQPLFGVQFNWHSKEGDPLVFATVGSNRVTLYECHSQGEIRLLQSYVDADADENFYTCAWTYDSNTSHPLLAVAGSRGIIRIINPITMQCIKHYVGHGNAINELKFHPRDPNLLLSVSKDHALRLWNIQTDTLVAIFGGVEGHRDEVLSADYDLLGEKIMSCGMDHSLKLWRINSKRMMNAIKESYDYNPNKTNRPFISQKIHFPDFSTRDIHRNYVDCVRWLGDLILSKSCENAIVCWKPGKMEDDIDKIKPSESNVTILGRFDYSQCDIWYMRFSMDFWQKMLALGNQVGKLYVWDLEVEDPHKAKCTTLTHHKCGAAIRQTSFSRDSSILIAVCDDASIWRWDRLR
Chain of EZH2 (Enhancer of Zeste Homologue 2), a Histone H3 Lys 27 (H3K27) methyltransferase (Q15022 whole entry partner): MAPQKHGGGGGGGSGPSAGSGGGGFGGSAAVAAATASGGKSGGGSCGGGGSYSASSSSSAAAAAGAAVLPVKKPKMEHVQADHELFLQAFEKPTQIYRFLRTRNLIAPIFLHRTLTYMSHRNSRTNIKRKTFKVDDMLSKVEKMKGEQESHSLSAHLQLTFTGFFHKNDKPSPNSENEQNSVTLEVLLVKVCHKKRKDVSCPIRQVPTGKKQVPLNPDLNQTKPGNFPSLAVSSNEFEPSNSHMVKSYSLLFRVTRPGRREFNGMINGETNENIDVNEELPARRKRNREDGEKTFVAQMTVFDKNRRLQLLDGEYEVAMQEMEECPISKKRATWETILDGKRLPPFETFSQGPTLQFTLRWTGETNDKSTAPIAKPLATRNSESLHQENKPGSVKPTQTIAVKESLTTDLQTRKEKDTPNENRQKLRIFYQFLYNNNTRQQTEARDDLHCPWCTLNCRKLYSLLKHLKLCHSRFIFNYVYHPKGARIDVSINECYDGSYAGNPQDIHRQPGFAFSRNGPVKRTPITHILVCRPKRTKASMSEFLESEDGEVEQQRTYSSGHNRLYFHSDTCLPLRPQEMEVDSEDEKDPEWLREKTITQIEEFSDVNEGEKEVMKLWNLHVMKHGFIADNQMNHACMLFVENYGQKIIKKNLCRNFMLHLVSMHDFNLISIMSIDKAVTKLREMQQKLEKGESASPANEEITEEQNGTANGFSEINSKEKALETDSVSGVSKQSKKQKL
Protocol: An organosilicon compound of the invention (GH1503) was tested using the in vitro target-based assays through an open innovation drug discovery program (OIDD). The organosilicon compound tested was given OIDD number 2351349879. […] This enzyme plays a critical role in regulating gene expression and is highly expressed in a wide range of cancer types, including bladder, breast, colon, lung, melanoma, pancreatic cancer, melanoma, sarcoma and lymphomas.

## CC1(C)CC(NC(=O)[C@H](Cc2ccc(OCc3c(Cl)cccc3Cl)cc2)NC(=O)c2ccc(OCCC[Si](C)(C)C)cc2)CC(C)(C)N1 [GH1501, N^α-{4-[3-(trimethylsilyl)propoxy]-benzoyl}-N-(2,2,6,6-tetramethylpiperidin-4-yl)-[O-(2,6-dichlorobenzyl)-L-tyrosinamide]]
CCRF-CEM; Homo sapiens, 48 h
  GI50: 1200 nM
K-562; Homo sapiens, K562, 48 h
  GI50: 322 nM
Leukemia cell lines; Homo sapiens
  GI50: 802 nM
A549/ATCC; Homo sapiens, A549, 48 h
  GI50: 407 nM
HOP-92; Homo sapiens, HOP-92, 48 h
  GI50: 1170 nM
NCI-H23; Homo sapiens, NCI-H23, 48 h
  GI50: 1650 nM
SF-268; Homo sapiens, SF-268, 48 h
  GI50: 903 nM
SF-539; Homo sapiens, SF-539, 48 h
  GI50: 1770 nM
U-251; Homo sapiens, U-251, 48 h
  GI50: 230 nM
CNS Cancer cell lines; Homo sapiens
  GI50: 1190 nM
MDA-MB-435; Homo sapiens, MDA-MB-435, 48 h
  GI50: 269 nM
Melanoma cell lines; Homo sapiens
  GI50: 1180 nM
IGROV1; Homo sapiens, IGROV-1, 48 h
  GI50: 1200 nM
OVCAR-4; Homo sapiens, OVCAR-4, 48 h
  GI50: 1620 nM
SK-OV-3; Homo sapiens, SK-OV-3, 48 h
  GI50: 2080 nM
786-0; Homo sapiens, 786-0, 48 h
  GI50: 369 nM
MDA-MB-231/ATCC; Homo sapiens, MDA-MB-231, 48 h
  GI50: 881 nM
BT-549; Homo sapiens, BT-549, 48 h
  GI50: 2010 nM

## CCCC[Si](C)(C)COc1ccc(C(=O)N[C@@H](Cc2ccc(OCc3c(Cl)cccc3Cl)cc2)C(=O)NC2CC(C)(C)NC(C)(C)C2)cc1 [GH1503, N^α-{4-[(butyldimethylsilyl)methoxy]-benzoyl}-N-(2,2,6,6-tetramethylpiperidin-4-yl)-[O-(2,6-dichlorobenzyl)-L-tyrosinamide]]
CCRF-CEM; Homo sapiens, Leukemia, 48 h drug incubation, read-out: GI50
  GI50: 531 nM
K-562; Homo sapiens, K562, Leukemia, K-562, 48 h drug incubation, read-out: GI50
  GI50: 333 nM
Leukemia cell lines; Homo sapiens, average over Leukemia panel
  GI50: 572 nM
A549/ATCC; Homo sapiens, Non-Small Cell Lung Cancer, A549/ATCC, 48 h drug incubation, read-out: GI50
  GI50: 332 nM
HOP-92; Homo sapiens, Non-Small Cell Lung Cancer, HOP-92, 48 h drug incubation, read-out: GI50
  GI50: 1110 nM
NCI-H23; Homo sapiens, Non-Small Cell Lung Cancer, NCI-H23, 48 h drug incubation, read-out: GI50
  GI50: 1560 nM
SF-268; Homo sapiens, CNS Cancer, SF-268, 48 h drug incubation, read-out: GI50
  GI50: 611 nM
SF-539; Homo sapiens, CNS Cancer, SF-539, 48 h drug incubation, read-out: GI50
  GI50: 1730 nM
U-251; Homo sapiens, CNS Cancer, U-251, 48 h drug incubation, read-out: GI50
  GI50: 234 nM
CNS Cancer cell lines; Homo sapiens, average over CNS Cancer panel
  GI50: 1100 nM
MDA-MB-435; Homo sapiens, Melanoma, MDA-MB-435, 48 h drug incubation, read-out: GI50
  GI50: 250 nM
Melanoma cell lines; Homo sapiens, average over Melanoma panel
  GI50: 1130 nM
IGROV1; Homo sapiens, IGROV-1, Ovarian Cancer, IGROV1, 48 h drug incubation, read-out: GI50
  GI50: 704 nM
OVCAR-4; Homo sapiens, Ovarian Cancer, OVCAR-4, 48 h drug incubation, read-out: GI50
  GI50: 711 nM
SK-OV-3; Homo sapiens, Ovarian Cancer, SK-OV-3, 48 h drug incubation, read-out: GI50
  GI50: 2030 nM
786-0; Homo sapiens, Renal Cancer, 786-0, 48 h drug incubation, read-out: GI50
  GI50: 468 nM
MDA-MB-231/ATCC; Homo sapiens, Breast Cancer, MDA-MB-231/ATCC, 48 h drug incubation, read-out: GI50
  GI50: 494 nM
BT-549; Homo sapiens, Breast Cancer, BT-549, 48 h drug incubation, read-out: GI50
  GI50: 2110 nM
[1]
  IC50: in the micromolar range

## CCCC[Si](C)(C)COc1ccc(C(=O)N[C@@H](Cc2ccc(-c3ccccc3)cc2)C(=O)NC2CC(C)(C)NC(C)(C)C2)cc1 [GH1504, N^α-{4-[(butyldimethylsilyl)methoxy]-benzoyl}-N-(2,2,6,6-tetramethylpiperidin-4-yl)-(4-phenyl-L-phenylalaninamide)]
CCRF-CEM; Homo sapiens, 48 h
  GI50: 1500 nM
K-562; Homo sapiens, K562, 48 h
  GI50: 386 nM
Leukemia cell lines; Homo sapiens
  GI50: 1170 nM
A549/ATCC; Homo sapiens, A549, 48 h
  GI50: 326 nM
HOP-92; Homo sapiens, HOP-92, 48 h
  GI50: 1370 nM
NCI-H23; Homo sapiens, NCI-H23, 48 h
  GI50: 1760 nM
SF-268; Homo sapiens, SF-268, 48 h
  GI50: 679 nM
SF-539; Homo sapiens, SF-539, 48 h
  GI50: 1770 nM
U-251; Homo sapiens, U-251, 48 h
  GI50: 238 nM
CNS Cancer cell lines; Homo sapiens
  GI50: 1170 nM
MDA-MB-435; Homo sapiens, MDA-MB-435, 48 h
  GI50: 292 nM
Melanoma cell lines; Homo sapiens
  GI50: 886 nM
IGROV1; Homo sapiens, IGROV-1, 48 h
  GI50: 1640 nM
OVCAR-4; Homo sapiens, OVCAR-4, 48 h
  GI50: 521 nM
SK-OV-3; Homo sapiens, SK-OV-3, 48 h
  GI50: 2120 nM
786-0; Homo sapiens, 786-0, 48 h
  GI50: 780 nM
MDA-MB-231/ATCC; Homo sapiens, MDA-MB-231, 48 h
  GI50: 880 nM
BT-549; Homo sapiens, BT-549, 48 h
  GI50: 1960 nM

## CCOP(=O)(OCC)C(NC(=O)[C@H](Cc1ccc(-c2ccccc2)cc1)NC(=O)c1ccc(OCCC[Si](C)(C)C)cc1)P(=O)(OCC)OCC [GH1505, N^α-{4-[3-(trimethylsilyl)propoxy]-benzoyl}-N-[bis(dietoxyphosphoryl)methyl]-(4-phenyl-L-phenylalaninamide)]
CCRF-CEM; Leukemia, 48 h drug incubation, read-out: GI50
  GI50: 2780 nM
K-562; Leukemia, K-562, 48 h drug incubation, read-out: GI50
  GI50: 3460 nM
Leukemia cell lines; average over Leukemia panel
  GI50: 2800 nM
A549/ATCC; Non-Small Cell Lung Cancer, A549/ATCC, 48 h drug incubation, read-out: GI50
  GI50: 2840 nM
HOP-92; Non-Small Cell Lung Cancer, HOP-92, 48 h drug incubation, read-out: GI50
  GI50: 2090 nM
NCI-H23; Non-Small Cell Lung Cancer, NCI-H23, 48 h drug incubation, read-out: GI50
  GI50: 3050 nM
SF-268; CNS Cancer, SF-268, 48 h drug incubation, read-out: GI50
  GI50: 2070 nM
SF-539; CNS Cancer, SF-539, 48 h drug incubation, read-out: GI50
  GI50: 1820 nM
U-251; CNS Cancer, U-251, 48 h drug incubation, read-out: GI50
  GI50: 2090 nM
CNS Cancer cell lines; average over CNS Cancer panel
  GI50: 2010 nM
MDA-MB-435; Melanoma, MDA-MB-435, 48 h drug incubation, read-out: GI50
  GI50: 1900 nM
Melanoma cell lines; average over Melanoma panel
  GI50: 1920 nM
IGROV1; Ovarian Cancer, IGROV1, 48 h drug incubation, read-out: GI50
  GI50: 3220 nM
OVCAR-4; Ovarian Cancer, OVCAR-4, 48 h drug incubation, read-out: GI50
  GI50: 2540 nM
SK-OV-3; Ovarian Cancer, SK-OV-3, 48 h drug incubation, read-out: GI50
  GI50: 2590 nM
786-0; Renal Cancer, 786-0, 48 h drug incubation, read-out: GI50
  GI50: 2760 nM
MDA-MB-231/ATCC; Breast Cancer, MDA-MB-231/ATCC, 48 h drug incubation, read-out: GI50
  GI50: 1620 nM
BT-549; Breast Cancer, BT-549, 48 h drug incubation, read-out: GI50
  GI50: 2090 nM
